Reference: patent US9708312B2, “Dihydropyrimidinoisoquinolinones and pharmaceutical compositions thereof for the treatment of inflammatory disorders (GPR84 antagonists)” (GALAPAGOS NV, priority 2012, dated 2017)
pIC50: −log10 of the molar value.

Molecular target: T1, GPR84 (Homo sapiens, UniProt Q9NQS5)
T1 construct: expressed in transfected cells
Experiment: GPR84 [35S]GTPγS binding assay, HEPES buffer
Format: biochemical
Details: 3,3′ di indolylmethane at EC80, membranes from stable cell line over expressing GPR84
Experimental: 1.1. Cell Based Assay: GTp-γ S Binding Assay.
The following assay can be used for determination of GPR84 activation.
The assay is performed in a 96 well plate where the following reagents are added. […] In a last step, 30 μL of a mixture consisting of membranes-GTPγS-SpA beads is added [mixture consists of 20 μg/well membranes derived from stable cell line over expressing GPR84 (membranes are pre-incubated with 0.1 μM GDP for 15 min at 4° C.), 0.1 nM [^35S]GTPγS (Perkin Elmer, NEG030) and 0.5 mg/well PVT-WGA SpA beads (Perkin Elmer, RPNQ0001)]. All components are diluted in assay buffer containing 20 mM HEPES pH 7.4; 5 mM MgCl2; 250 mM NaCl; 0.05% BSA; 75 ug/mL saponin Reactions are incubated for 90 min at room temperature followed by centrifugation at 2000 rpm during 15 min. Plates are read on a Topcount reader (Perkin Elmer) immediately after centrifugation (readout time, 1 min/well).

T1 sequence (Q9NQS5 whole entry): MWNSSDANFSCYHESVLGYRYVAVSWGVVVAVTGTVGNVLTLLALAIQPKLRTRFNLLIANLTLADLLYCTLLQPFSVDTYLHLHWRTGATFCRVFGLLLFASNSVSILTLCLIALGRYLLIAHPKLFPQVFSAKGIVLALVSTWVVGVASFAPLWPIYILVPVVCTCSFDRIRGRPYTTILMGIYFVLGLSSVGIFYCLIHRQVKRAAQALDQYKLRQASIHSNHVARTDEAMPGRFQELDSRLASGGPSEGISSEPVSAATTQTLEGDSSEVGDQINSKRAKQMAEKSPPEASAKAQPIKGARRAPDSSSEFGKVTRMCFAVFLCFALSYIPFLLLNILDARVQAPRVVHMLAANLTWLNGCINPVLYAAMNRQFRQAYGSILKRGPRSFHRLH

CC(C)c1nc(COc2ccc3c(c2)CCn2c-3cc(OCC3COc4ncccc4O3)nc2=O)no1 (stereo not drawn) [compound 157, 2-(2,3-dihydro-[1,4]dioxino[2,3-b]pyridin-2-ylmethoxy)-9-(5-isopropyl-[1,2,4]oxadiazol-3-ylmethoxy)-6,7-dihydro-pyrimido[6,1-a]isoquinolin-4-one] was tested. Which pIC50 did it give?
Its pIC50 is 7.00 to 11.00.

How did the pIC50 turn out when O=c1nc(OCC2COc3ncccc3O2)cc2n1CCc1cc(NCc3ncco3)ccc1-2 (stereo not drawn) [compound 153, 2-(2,3-dihydro-[1,4]dioxino[2,3-b]pyridin-2-ylmethoxy)-9-[(oxazol-2-ylmethyl)-amino]-6,7-dihydro-pyrimido[6,1-a]isoquinolin-4-one] was run?
Its pIC50 is 7.00 to 11.00.

With CC(C)CC(O)C#Cc1ccc2c(c1)CCn1c-2cc(OCC2COc3ncccc3O2)nc1=O (stereo not drawn) [compound 185, 2-(2,3-dihydro-[1,4]dioxino[2,3-b]pyridin-2-ylmethoxy)-9-(3-hydroxy-5-methyl-hex-1-ynyl)-6,7-dihydro-pyrimido[6,1-a]isoquinolin-4-one] as the molecule, how does the pIC50 read?
Its pIC50 is 7.00 to 11.00.

With O=c1nc(OCC2CCCO2)cc2n1CCc1cc(OCC3CC3)ccc1-2 (stereo not drawn) [compound 11, 9-cyclopropylmethoxy-2-(tetrahydro-furan-2-ylmethoxy)-6,7-dihydro-pyrimido[6,1-a]isoquinolin-4-one] as the molecule, how does the pIC50 read?
Its pIC50 is 6.30 to 7.00.

O=c1nc(OCC2COc3ncccc3O2)cc2n1CCc1ccccc1-2 (stereo not drawn) [compound 146, 2-(2,3-dihydro-[1,4]dioxino[2,3-b]pyridin-2-ylmethoxy)-6,7-dihydro-pyrimido[6,1-a]isoquinolin-4-one] was tested. Which pIC50 did it give?
Its pIC50 is 7.00 to 11.00.

With COC(=O)c1ccc(COc2ccc3c(c2)CCn2c-3cc(OCC3CCCO3)nc2=O)cc1 (stereo not drawn) [compound 26, 4-[4-oxo-2-(tetrahydro-furan-2-ylmethoxy)-6,7-dihydro-4H-pyrimido[6,1-a]isoquinolin-9-yloxymethyl]-benzoic acid methyl ester] as the molecule, how does the pIC50 read?
The pIC50 was 6.30 to 7.00.

With O=c1nc(OCC2CCCO2)cc2n1CCc1cc(OCc3ccc(Cl)cc3)ccc1-2 (stereo not drawn) [compound 21, 9-(4-chloro-benzyloxy)-2-(tetrahydro-furan-2-ylmethoxy)-6,7-dihydro-pyrimido[6,1-a]isoquinolin-4-one] as the molecule, how does the pIC50 read?
Its pIC50 is 7.00 to 11.00.

How did the pIC50 turn out when N#Cc1cccc(-c2ccc3c(c2)CCn2c-3cc(OCC3CCCO3)nc2=O)c1 (stereo not drawn) [compound 95, 3-[4-Oxo-2-(tetrahydro-furan-2-ylmethoxy)-6,7-dihydro-4H-pyrimido[6,1-a]isoquinolin-9-yl]-benzonitrile] was run?
Its pIC50 is 6.30 to 7.00.

How did the pIC50 turn out when O=c1nc(OCC2COc3ncccc3O2)cc2n1CCc1cc(OCC3CCCCO3)ccc1-2 (stereo not drawn) [compound 179, 2-(2,3-dihydro-[1,4]dioxino[2,3-b]pyridin-2-ylmethoxy)-9-(tetrahydro-pyran-2-ylmethoxy)-6,7-dihydro-pyrimido[6,1-a]isoquinolin-4-one] was run?
Its pIC50 is 7.00 to 11.00.

With COc1ccccc1OCCOc1ccc2c(c1)CCn1c-2cc(OCC2CCCO2)nc1=O (stereo not drawn) [compound 40, 9-[2-(2-methoxy-phenoxy)-ethoxy]-2-(tetrahydro-furan-2-ylmethoxy)-6,7-dihydro-pyrimido[6,1-a]isoquinolin-4-one] as the molecule, how does the pIC50 read?
The pIC50 was 7.00 to 11.00.

COc1ncc(-c2ccc3c(c2)CCn2c-3cc(OCC3COc4ncccc4O3)nc2=O)cn1 (stereo not drawn) [compound 166, 2-(2,3-dihydro-[1,4]dioxino[2,3-b]pyridin-2-ylmethoxy)-9-(2-methoxy-pyrimidin-5-yl)-6,7-dihydro-pyrimido[6,1-a]isoquinolin-4-one] was tested. Which pIC50 did it give?
Its pIC50 is 7.00 to 11.00.

CC(C)(N)C#Cc1ccc2c(c1)CCn1c-2cc(OCC2COc3ncccc3O2)nc1=O (stereo not drawn) [compound 178, 9-(3-amino-3-methyl-but-1-ynyl)-2-(2,3-dihydro-[1,4]dioxino[2,3-b]pyridin-2-ylmethoxy)-6,7-dihydro-pyrimido[6,1-a]isoquinolin-4-one] was tested. Which pIC50 did it give?
The pIC50 was 6.30 to 7.00.

How did the pIC50 turn out when N#Cc1cccc(COc2ccc3c(c2)CCn2c-3cc(OCC3CCCO3)nc2=O)c1 (stereo not drawn) [compound 19, 3-[4-oxo-2-(tetrahydro-furan-2-ylmethoxy)-6,7-dihydro-4H-pyrimido[6,1-a]isoquinolin-9-yloxymethyl]-benzonitrile] was run?
Its pIC50 is 6.30 to 7.00.

How did the pIC50 turn out when O=c1nc(OCC2CCCO2)cc2n1CCc1cc(OCc3ccccc3[N+](=O)[O-])ccc1-2 (stereo not drawn) [compound 25, 9-(2-nitro-benzyloxy)-2-(tetrahydro-furan-2-ylmethoxy)-6,7-dihydro-pyrimido[6,1-a]isoquinolin-4-one] was run?
Its pIC50 is 7.00 to 11.00.

With CCCn1nnnc1COc1ccc2c(c1)CCn1c-2cc(OCC2CCCO2)nc1=O (stereo not drawn) [compound 64, 9-(1-propyl-1H-tetrazol-5-ylmethoxy)-2-(tetrahydro-furan-2-ylmethoxy)-6,7-dihydro-pyrimido[6,1-a]isoquinolin-4-one] as the molecule, how does the pIC50 read?
Its pIC50 is 6.30 to 7.00.

N#CCOc1ccc2c(c1)CCn1c-2cc(OCC2COc3ccccc3O2)nc1=O (stereo not drawn) [compound 72, [2-(2,3-dihydro-benzo[1,4]dioxin-2-ylmethoxy)-4-oxo-6,7-dihydro-4H-pyrimido[6,1-a]isoquinolin-9-yloxy]-acetonitrile] was tested. Which pIC50 did it give?
Its pIC50 is 7.00 to 11.00.

How did the pIC50 turn out when N#CCCOCC#Cc1ccc2c(c1)CCn1c-2cc(OCC2COc3ncccc3O2)nc1=O (stereo not drawn) [compound 170, 3-{3-[2-(2,3-dihydro-[1,4]dioxino[2,3-b]pyridin-2-ylmethoxy)-4-oxo-6,7-dihydro-4H-pyrimido[6,1-a]isoquinolin-9-yl]-prop-2-ynyloxy}-propionitrile] was run?
The pIC50 was 7.00 to 11.00.

With COc1ccc(OCCOc2ccc3c(c2)CCn2c-3cc(OCC3CCCO3)nc2=O)cc1 (stereo not drawn) [compound 42, 9-[2-(4-methoxy-phenoxy)-ethoxy]-2-(tetrahydro-furan-2-ylmethoxy)-6,7-dihydro-pyrimido[6,1-a]isoquinolin-4-one] as the molecule, how does the pIC50 read?
The pIC50 was 7.00 to 11.00.

With O=c1nc(OCC2COc3ncccc3O2)cc2n1CCc1cc(OCc3noc(C4CC4)n3)ccc1-2 (stereo not drawn) [compound 156, 9-(5-cyclopropyl-[1,2,4]oxadiazol-3-ylmethoxy)-2-(2,3-dihydro-[1,4]dioxino[2,3-b]pyridin-2-ylmethoxy)-6,7-dihydro-pyrimido[6,1-a]isoquinolin-4-one] as the molecule, how does the pIC50 read?
Its pIC50 is 7.00 to 11.00.

O=c1nc(OCC2COc3ccccc3O2)cc2n1CCc1cc(OCCCN3CCCCC3)ccc1-2 (stereo not drawn) [compound 81, 2-(2,3-dihydro-benzo[1,4]dioxin-2-ylmethoxy)-9-(3-piperidin-1-yl-propoxy)-6,7-dihydro-pyrimido[6,1-a]isoquinolin-4-one] was tested. Which pIC50 did it give?
The pIC50 was 6.30 to 7.00.

With O=C(COc1ccc2c(c1)CCn1c-2cc(OCC2COc3ccccc3O2)nc1=O)NCc1ccccc1 (stereo not drawn) [compound 78, N-benzyl-2-[2-(2,3-dihydro-benzo[1,4]dioxin-2-ylmethoxy)-4-oxo-6,7-dihydro-4H-pyrimido[6,1-a]isoquinolin-9-yloxy]-acetamide] as the molecule, how does the pIC50 read?
Its pIC50 is 7.00 to 11.00.

With CN1CCN(CCCOc2ccc3c(c2)CCn2c-3cc(OCC3COc4ccccc4O3)nc2=O)CC1 (stereo not drawn) [compound 84, 2-(2,3-dihydro-benzo[1,4]dioxin-2-ylmethoxy)-9-[3-(4-methyl-piperazin-1-yl)-propoxy]-6,7-dihydro-pyrimido[6,1-a]isoquinolin-4-one] as the molecule, how does the pIC50 read?
Its pIC50 is 6.30 to 7.00.

With O=c1nc(OCC2COc3ncccc3O2)cc2n1CCc1cc(C#CCNc3ccccc3)ccc1-2 (stereo not drawn) [compound 194, 2-(2,3-dihydro-[1,4]dioxino[2,3-b]pyridin-2-ylmethoxy)-9-(3-phenylamino-prop-1-ynyl)-6,7-dihydro-pyrimido[6,1-a]isoquinolin-4-one] as the molecule, how does the pIC50 read?
Its pIC50 is 7.00 to 11.00.

O=c1nc(OCC2COc3ncccc3O2)cc2n1CCc1cc(-c3ccoc3)ccc1-2 (stereo not drawn) [compound 148, 2-(2,3-dihydro-[1,4]dioxino[2,3-b]pyridin-2-ylmethoxy)-9-furan-3-yl-6,7-dihydro-pyrimido[6,1-a]isoquinolin-4-one] was tested. Which pIC50 did it give?
The pIC50 was 7.00 to 11.00.

How did the pIC50 turn out when O=c1nc(OCC2COc3ncccc3O2)cc2n1CCc1cc(C3=CCOCC3)ccc1-2 (stereo not drawn) [compound 161, 2-(2,3-dihydro-[1,4]dioxino[2,3-b]pyridin-2-ylmethoxy)-9-(3,6-dihydro-2H-pyran-4-yl)-6,7-dihydro-pyrimido[6,1-a]isoquinolin-4-one] was run?
Its pIC50 is 7.00 to 11.00.

How did the pIC50 turn out when O=c1nc(OCC2COc3ccccc3O2)cc2n1CCc1cc(OCc3ccccn3)ccc1-2 (stereo not drawn) [compound 28, 2-(2,3-dihydro-benzo[1,4]dioxin-2-ylmethoxy)-9-(pyridin-2-ylmethoxy)-6,7-dihydro-pyrimido[6,1-a]isoquinolin-4-one] was run?
The pIC50 was 7.00 to 11.00.

CCOc1ncccc1-c1ccc2c(c1)CCn1c-2cc(OCC2COc3ncccc3O2)nc1=O (stereo not drawn) [compound 163, 2-(2,3-dihydro-[1,4]dioxino[2,3-b]pyridin-2-ylmethoxy)-9-(2-ethoxy-pyridin-3-yl)-6,7-dihydro-pyrimido[6,1-a]isoquinolin-4-one] was tested. Which pIC50 did it give?
The pIC50 was 7.00 to 11.00.

With CC(C)N(C)C(=O)COc1ccc2c(c1)CCn1c-2cc(OCC2COc3ccccc3O2)nc1=O (stereo not drawn) [compound 67, 2-[2-(2,3-Dihydro-benzo[1,4]dioxin-2-ylmethoxy)-4-oxo-6,7-dihydro-4H-pyrimido[6,1-a]isoquinolin-9-yloxy]-N-isopropyl-N-methyl-acetamide] as the molecule, how does the pIC50 read?
Its pIC50 is 7.00 to 11.00.

Cn1cc(-c2cccc(COc3ccc4c(c3)CCn3c-4cc(OCC4CCCO4)nc3=O)n2)cn1 (stereo not drawn) [compound 55, 9-[6-(1-methyl-1H-pyrazol-4-yl)-pyridin-2-ylmethoxy]-2-(tetrahydro-furan-2-ylmethoxy)-6,7-dihydro-pyrimido[6,1-a]isoquinolin-4-one] was tested. Which pIC50 did it give?
The pIC50 was 6.30 to 7.00.

COc1cccc(-c2ccc3c(c2)CCn2c-3cc(OCC3CCCO3)nc2=O)c1 (stereo not drawn) [compound 100, 9-(3-methoxy-phenyl)-2-(tetrahydro-furan-2-ylmethoxy)-6,7-dihydro-pyrimido[6,1-a]isoquinolin-4-one] was tested. Which pIC50 did it give?
The pIC50 was 6.30 to 7.00.
